Assay results reported in the supplement of paper PMC10307832.

How the values were obtained:
Experiment in all cases: relative viability (nuclei count vs DMSO), 5 days (fraction); higher = more cells survive
[1] = test system: NCI-H1734
Method in brief: (§1)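 Lung cancer cell lines, seeded in 1536-well plates, were treated the following day by pin tool with a single drug or with five library-drug doses (not always all listed) in √10 steps on top of a fixed anchor-drug dose. Cells were fixed and nuclei stained in one step after 5 days, and nuclei were counted. Relative viability is the nuclei count for treated wells divided by that for vehicle wells, reported as medians of duplicate plates.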

[2] = test system: HCC-366
Method in brief: as §1

[3] = test system: NCI-H2170
Method in brief: as §1

[4] = test system: NCI-H1792
Method in brief: as §1

[5] = test system: H3255
Method in brief: as §1

[6] = test system: EKVX
Method in brief: as §1

[7] = test system: NCI-H520
Method in brief: as §1

[8] = test system: NCI-H1666
Method in brief: as §1

[9] = test system: NCI-H1563
Method in brief: as §1

[10] = test system: NCI-H596
Method in brief: as §1

[11] = test system: LK-2
Method in brief: as §1

[12] = test system: NCI-H23
Method in brief: as §1

With `Oc1nc(-c2ccc(C(F)(F)F)cc2)nc2c1CSCC2` [XAV939] + N=C(N)NC(=N)NCCc1ccccc1 [Phenformin] (partner 250 µM) the relative viability ([1]; first compound 0.08 µM) was 0.44, the relative viability ([1]; first compound 0.253 µM) was 0.386 and the relative viability ([1]; first compound 0.8 µM) was 0.337. It also gave a relative viability ([1]; first compound 2.53 µM) of 0.393, a relative viability ([2]; first compound 0.08 µM) of 0.638 and a relative viability ([2]; first compound 0.253 µM) of 0.596. For the same molecule, the relative viability ([2]; first compound 0.8 µM) was 0.65, the relative viability ([2]; first compound 2.53 µM) was 0.634 and the relative viability ([3]; first compound 0.08 µM) was 0.393. The relative viability ([3]; first compound 0.253 µM) was 0.394, the relative viability ([3]; first compound 0.8 µM) was 0.413 and the relative viability ([3]; first compound 2.53 µM) was 0.362. It also gave a relative viability ([4]; first compound 0.08 µM) of 0.432, a relative viability ([4]; first compound 0.253 µM) of 0.308 and a relative viability ([4]; first compound 0.8 µM) of 0.303. The relative viability ([4]; first compound 2.53 µM) was 0.331, the relative viability ([5]; first compound 0.08 µM) was 0.415 and the relative viability ([5]; first compound 0.253 µM) was 0.397. For the same molecule, the relative viability ([5]; first compound 0.8 µM) was 0.381, the relative viability ([5]; first compound 2.53 µM) was 0.375 and the relative viability ([6]; first compound 0.08 µM) was 0.219. The relative viability ([6]; first compound 0.253 µM) was 0.225, the relative viability ([6]; first compound 0.8 µM) was 0.213 and the relative viability ([6]; first compound 2.53 µM) was 0.221. The relative viability ([7]; first compound 0.08 µM) was 0.58, the relative viability ([7]; first compound 0.253 µM) was 0.51 and the relative viability ([7]; first compound 0.8 µM) was 0.526. For the same molecule, the relative viability ([7]; first compound 2.53 µM) was 0.401, the relative viability ([8]; first compound 0.08 µM) was 0.561 and the relative viability ([8]; first compound 0.253 µM) was 0.497. It also gave a relative viability ([8]; first compound 0.8 µM) of 0.555, a relative viability ([8]; first compound 2.53 µM) of 0.555 and a relative viability ([9]; first compound 0.08 µM) of 0.616. The relative viability ([9]; first compound 0.253 µM) was 0.681, the relative viability ([9]; first compound 0.8 µM) was 0.594 and the relative viability ([9]; first compound 2.53 µM) was 0.636. For the same molecule, the relative viability ([10]; first compound 0.08 µM) was 0.699, the relative viability ([10]; first compound 0.253 µM) was 0.673 and the relative viability ([10]; first compound 0.8 µM) was 0.764. For the same molecule, the relative viability ([10]; first compound 2.53 µM) was 0.774, the relative viability ([11]; first compound 0.08 µM) was 0.458 and the relative viability ([11]; first compound 0.253 µM) was 0.527. For the same molecule, the relative viability ([11]; first compound 0.8 µM) was 0.484, the relative viability ([11]; first compound 2.53 µM) was 0.369 and the relative viability ([12]; first compound 0.08 µM) was 0.892. For the same molecule, the relative viability ([12]; first compound 0.253 µM) was 0.722.
